From publication PMC11829042, “Proteasomes accumulate in the plant apoplast where they participate in microbe-associated molecular pattern (MAMP)-triggered pathogen defense” (Nature Communications, 2025)

What was measured:
[1] = molecular target: T1, 20S proteasome core particle, PBE1(β5) subunit (chymotrypsin-like activity) (Arabidopsis thaliana, UniProt O23717); assay: Suc-LLVY-AMC cleavage in leaf lysate and APF, […]; type: cell-based
T1 construct: native proteasomes in leaf crude lysate and apoplastic fluid; with other subunits of the assembled 20S core particle
T1 sequence (O23717 58-274): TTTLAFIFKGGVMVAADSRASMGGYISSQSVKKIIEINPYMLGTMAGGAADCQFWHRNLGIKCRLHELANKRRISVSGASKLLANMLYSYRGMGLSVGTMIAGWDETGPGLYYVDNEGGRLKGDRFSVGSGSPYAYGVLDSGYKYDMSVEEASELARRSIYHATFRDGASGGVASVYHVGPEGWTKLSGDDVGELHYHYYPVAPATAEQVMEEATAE

[2] = molecular target: T2, 20S proteasome core particle, PBE1(β5) subunit (chymotrypsin-like activity) (Arabidopsis thaliana, UniProt O23717); assay: Suc-LLVY-AMC fluorogenic peptidase assay with […] SylA, affinity-purified proteasomes; type: biochemical
T2 construct: with other subunits of the assembled 20S core particle (PAG1(α7)-FLAG)
T2 sequence (O23717 58-274): T1 sequence (O23717 58-274)
T2 sequence (O23715 2-249 partner): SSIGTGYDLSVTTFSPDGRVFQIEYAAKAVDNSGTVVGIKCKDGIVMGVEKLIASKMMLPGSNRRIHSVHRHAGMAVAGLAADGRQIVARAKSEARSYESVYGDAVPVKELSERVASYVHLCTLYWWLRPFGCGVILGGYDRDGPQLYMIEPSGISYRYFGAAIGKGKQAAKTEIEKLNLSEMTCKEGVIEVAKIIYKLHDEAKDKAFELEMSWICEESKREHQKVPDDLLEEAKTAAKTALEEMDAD

In the case of `CC(C)C[C@H](NC(=O)[C@H](Cc1ccccc1)NC(=O)c1cnccn1)B(O)O` [BTZ, 1R-3-methyl-1-2S-3-phenyl-2-pyrazin-2-carbonylamino propanoyl amino butyl boronic acid], the “Suc-LLVY-AMC cleavage in leaf lysate and APF, 50 μM” value [1] is reported as “Suc-LLVY-AMC breakdown in the CL was strongly suppressed by the well-characterized CP inhibitors bortezomib (BTZ), MG132”.

With `CC(C)[C@H](NC(=O)N[C@H](C(=O)N[C@H]1/C=C/CCNC(=O)/C=C/[C@H](C(C)C)NC1=O)C(C)C)C(=O)O` [SylA, syringolin-A] the “Suc-LLVY-AMC fluorogenic peptidase assay with 50 or 150 μM SylA, affinity-purifi” value [2] was “not only effectively inhibit the proteolytic activity of affinity-purified Arabidopsis proteasomes and those in the CL”.
